Source: US11020381B2, “Biaryloxy derivatives as TTX-S blockers” (RaQualia Pharma Inc., priority 2017, dated 2021)
pIC50, pKi: −log10 of the molar value. Where “and” joins values, the source holds several entries; their conditions need not be identical. Identical values can stand only once. Like-named read-outs stand apart in the source and are kept apart here.

Experiments:
Nav1.7 [1] = molecular target: T1, Nav1.7 (Homo sapiens (Human), UniProt Q15858); assay: EFS-FRET assay; type: cell-based; details: CHO cells expressing human Nav1.7 channels; read-out: IC50 against Nav1.7
T1 sequence (Q15858 whole entry): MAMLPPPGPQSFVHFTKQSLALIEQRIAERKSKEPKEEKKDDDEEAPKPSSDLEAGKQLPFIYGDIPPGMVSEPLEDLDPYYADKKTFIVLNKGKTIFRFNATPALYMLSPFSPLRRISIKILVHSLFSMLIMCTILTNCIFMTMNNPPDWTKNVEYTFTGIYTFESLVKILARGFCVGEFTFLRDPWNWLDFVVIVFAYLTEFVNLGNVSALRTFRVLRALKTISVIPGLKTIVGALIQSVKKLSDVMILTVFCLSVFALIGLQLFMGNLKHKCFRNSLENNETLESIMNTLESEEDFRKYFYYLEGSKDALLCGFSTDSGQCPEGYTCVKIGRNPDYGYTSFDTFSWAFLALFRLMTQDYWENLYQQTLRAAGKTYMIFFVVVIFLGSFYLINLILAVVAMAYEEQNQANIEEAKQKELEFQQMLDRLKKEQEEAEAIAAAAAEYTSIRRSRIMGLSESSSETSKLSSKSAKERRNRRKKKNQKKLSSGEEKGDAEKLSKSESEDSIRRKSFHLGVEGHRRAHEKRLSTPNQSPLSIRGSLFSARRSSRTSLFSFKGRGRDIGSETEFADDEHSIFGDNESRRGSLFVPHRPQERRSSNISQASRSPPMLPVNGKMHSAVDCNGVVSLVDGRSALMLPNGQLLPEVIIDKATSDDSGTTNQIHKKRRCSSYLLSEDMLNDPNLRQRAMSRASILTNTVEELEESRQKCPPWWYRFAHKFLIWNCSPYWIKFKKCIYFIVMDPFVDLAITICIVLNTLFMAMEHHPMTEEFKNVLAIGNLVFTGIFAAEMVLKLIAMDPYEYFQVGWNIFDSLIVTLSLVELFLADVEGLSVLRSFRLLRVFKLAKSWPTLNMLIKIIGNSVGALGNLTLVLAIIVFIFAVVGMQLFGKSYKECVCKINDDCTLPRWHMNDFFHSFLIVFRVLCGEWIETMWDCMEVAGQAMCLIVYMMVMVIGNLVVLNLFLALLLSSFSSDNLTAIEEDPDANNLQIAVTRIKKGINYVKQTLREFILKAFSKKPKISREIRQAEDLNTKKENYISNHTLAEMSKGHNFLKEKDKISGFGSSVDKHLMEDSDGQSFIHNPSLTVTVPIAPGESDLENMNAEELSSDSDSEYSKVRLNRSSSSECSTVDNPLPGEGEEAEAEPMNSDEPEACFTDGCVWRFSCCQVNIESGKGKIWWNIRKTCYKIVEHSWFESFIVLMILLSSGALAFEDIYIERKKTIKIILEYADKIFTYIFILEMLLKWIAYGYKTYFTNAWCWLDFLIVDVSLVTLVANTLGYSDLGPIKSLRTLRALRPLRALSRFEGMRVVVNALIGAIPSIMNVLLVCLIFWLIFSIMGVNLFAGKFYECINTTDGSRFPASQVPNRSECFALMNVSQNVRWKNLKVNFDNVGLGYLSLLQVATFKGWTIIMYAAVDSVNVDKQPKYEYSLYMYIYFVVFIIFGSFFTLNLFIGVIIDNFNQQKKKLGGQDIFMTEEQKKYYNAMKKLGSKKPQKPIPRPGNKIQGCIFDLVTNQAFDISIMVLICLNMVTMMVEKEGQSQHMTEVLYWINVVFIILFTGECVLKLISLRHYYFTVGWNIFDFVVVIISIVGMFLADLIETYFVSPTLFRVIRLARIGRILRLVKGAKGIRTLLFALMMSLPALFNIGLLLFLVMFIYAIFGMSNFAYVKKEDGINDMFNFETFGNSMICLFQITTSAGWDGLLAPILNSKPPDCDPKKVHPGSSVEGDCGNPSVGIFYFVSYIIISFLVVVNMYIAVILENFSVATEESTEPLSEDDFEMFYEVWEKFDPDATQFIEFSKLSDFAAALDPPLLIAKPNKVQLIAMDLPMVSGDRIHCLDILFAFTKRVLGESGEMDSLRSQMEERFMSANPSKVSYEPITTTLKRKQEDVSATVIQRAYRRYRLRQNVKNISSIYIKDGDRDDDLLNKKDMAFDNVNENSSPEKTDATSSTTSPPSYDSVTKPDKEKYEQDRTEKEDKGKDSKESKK
Description: This screen is used to determine the effects of compounds on human Nav1.7 channels, utilizing electrical field stimulation (EFS) system in 96-well plate format on FDSS (Hamamatsu Photonics) platform. The changes of membrane potential are monitored with FRET dye pair, DiSBAC2(3) and PTS 18.
CHO (Chinese hamster ovary) cells expressing human Nav1.7 channels are grown in T225 flasks, in a 5% CO2 humidified incubator to about 80% confluence. Media composition consists of HAM/F12 with Glutamax I, 10% FCS, 100 units/mL penicillin and 100 microgram/mL hygromycin.
Seed each cell lines (1×10^5 cells/well) into 96-well plates prior to experimentation.
Incubate at 37° C. in 5% CO2 for 24 hours.
Wash each well with assay buffer (140 mM NaCl, 4.5 mM KCl, 10 mM D-Glucose, 2 mM CaCl2, 1 mM MgCl2, 10 mM HEPES, pH 7.4 adjusted with NaOH) twice.
Add 1st loading solution containing 10 microM PTS 18 and 0.06% Pluronic F-127 in assay buffer.
Incubate the plate at rt in dark for 1 hour.
Remove 1st loading solution and add 2nd loading solution containing 12.5 microM DiSBAC2(3), 1.25 mM Xylene Fast Yellow and 0.0075% Pluronic F-127 in assay buffer.
Place the plate under the dark at rt for 25 minutes.
Add compound solutions into the assay plate.
Set the assay plate in FDSS and place an EFS device on the plate.
Measure EFS-induced fluorescent response by FDSS.
The data are analyzed and reported as normalized ratios of intensities measured at […]. The process of calculating these ratios is performed as follows:
(§1) This analysis is performed using a computerized specific program designed for FDSS generated data. Fluorescence ratio values are plotted using XLfit to determine an IC50 value for each compound.

Nav1.5 [2] = molecular target: T2, Nav1.5 (Homo sapiens (Human), UniProt Q14524); assay: FRET assay; type: cell-based; details: HEK293 cells expressing human Nav1.5 channels; read-out: activity (IC50) against Nav1.5
T2 sequence (Q14524 whole entry): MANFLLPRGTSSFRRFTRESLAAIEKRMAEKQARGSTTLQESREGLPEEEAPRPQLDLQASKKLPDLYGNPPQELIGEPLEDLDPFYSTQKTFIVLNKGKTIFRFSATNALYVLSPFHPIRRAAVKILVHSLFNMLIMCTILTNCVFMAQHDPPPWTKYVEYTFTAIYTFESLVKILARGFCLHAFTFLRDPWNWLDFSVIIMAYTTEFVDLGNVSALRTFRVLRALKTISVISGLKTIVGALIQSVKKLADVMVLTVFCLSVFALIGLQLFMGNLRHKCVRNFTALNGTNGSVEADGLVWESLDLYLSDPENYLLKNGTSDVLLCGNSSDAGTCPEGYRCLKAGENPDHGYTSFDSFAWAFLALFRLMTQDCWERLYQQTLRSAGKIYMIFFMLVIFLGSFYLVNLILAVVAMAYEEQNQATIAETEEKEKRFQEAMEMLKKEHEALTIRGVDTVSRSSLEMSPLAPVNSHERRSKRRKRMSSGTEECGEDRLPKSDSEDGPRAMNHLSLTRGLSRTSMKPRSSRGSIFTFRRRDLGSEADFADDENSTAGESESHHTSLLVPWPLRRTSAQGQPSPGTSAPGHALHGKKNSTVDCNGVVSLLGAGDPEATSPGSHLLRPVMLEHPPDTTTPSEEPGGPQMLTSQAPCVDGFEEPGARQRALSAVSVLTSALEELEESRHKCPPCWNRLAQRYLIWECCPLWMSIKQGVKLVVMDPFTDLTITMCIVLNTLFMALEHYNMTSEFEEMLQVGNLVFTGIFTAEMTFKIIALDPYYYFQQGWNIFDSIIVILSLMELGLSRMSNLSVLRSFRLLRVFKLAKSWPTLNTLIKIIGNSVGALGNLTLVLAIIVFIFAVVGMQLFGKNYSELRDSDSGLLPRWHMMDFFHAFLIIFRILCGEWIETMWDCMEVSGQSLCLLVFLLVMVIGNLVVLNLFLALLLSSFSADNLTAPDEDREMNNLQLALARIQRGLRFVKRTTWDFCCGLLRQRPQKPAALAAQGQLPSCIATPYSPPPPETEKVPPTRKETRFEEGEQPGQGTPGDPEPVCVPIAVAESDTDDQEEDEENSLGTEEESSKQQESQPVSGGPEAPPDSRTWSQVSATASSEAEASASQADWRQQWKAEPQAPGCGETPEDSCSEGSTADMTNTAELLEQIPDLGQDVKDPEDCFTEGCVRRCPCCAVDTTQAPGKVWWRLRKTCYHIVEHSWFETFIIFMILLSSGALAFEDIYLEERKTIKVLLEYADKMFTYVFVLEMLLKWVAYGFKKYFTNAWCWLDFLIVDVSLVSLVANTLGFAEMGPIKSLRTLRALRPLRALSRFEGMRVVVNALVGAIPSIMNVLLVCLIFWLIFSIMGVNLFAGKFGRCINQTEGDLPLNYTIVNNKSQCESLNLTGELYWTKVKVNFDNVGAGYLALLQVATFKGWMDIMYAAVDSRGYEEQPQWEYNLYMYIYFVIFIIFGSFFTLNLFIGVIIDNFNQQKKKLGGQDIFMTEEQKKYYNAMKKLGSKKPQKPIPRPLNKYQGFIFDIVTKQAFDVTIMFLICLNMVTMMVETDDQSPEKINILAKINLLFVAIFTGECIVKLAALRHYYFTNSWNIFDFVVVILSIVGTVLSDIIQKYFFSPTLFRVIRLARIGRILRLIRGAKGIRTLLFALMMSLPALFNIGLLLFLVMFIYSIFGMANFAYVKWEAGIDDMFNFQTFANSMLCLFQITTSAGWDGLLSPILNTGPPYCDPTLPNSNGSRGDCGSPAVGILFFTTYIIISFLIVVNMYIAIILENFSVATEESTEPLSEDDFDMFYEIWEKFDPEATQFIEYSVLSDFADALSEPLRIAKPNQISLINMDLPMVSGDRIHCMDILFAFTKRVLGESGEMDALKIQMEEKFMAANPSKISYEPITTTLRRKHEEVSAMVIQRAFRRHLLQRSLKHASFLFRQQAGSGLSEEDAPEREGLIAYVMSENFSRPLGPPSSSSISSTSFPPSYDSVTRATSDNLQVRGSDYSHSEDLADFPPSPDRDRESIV
Description: This screen is used to determine the effects of compounds on human Nav1.5 channels, utilizing the cell imaging technology by Hamamatsu Photonics's Functional Drug Screening System (FDSS). The changes of membrane potential are monitored with fluorescent membrane potential dye pair, DiSBAC2(3) and CC2-DMPE, using FRET technology.
HEK293 cells expressing human Nav1.5 channels are grown in T225 flasks, in a 5% CO2 humidified incubator to about 80% confluence. HEK293 cells expressing human Nav1.5 channels are maintained in Dulbecco's Modified Eagle Medium (high glucose) supplemented with 10% fetal calf serum (FCS), 100 units/mL Penicillin, 100 microgram/mL Streptomycin and 500 microgram/mL Geneticine. […]
The data is analyzed and reported as normalized ratios of intensities measured in the 465 nm and 575 nm channels. […]
“FI465B”=the mean of fluorescence intensity as baseline (before Na^+ ligand addition) at 465 nm
“FI575B”=the mean of fluorescence intensity as baseline (before Na^+ ligand addition) at 575 nm
“FI465Max” maximum fluorescence intensity at 465 nm after Na^+ stimulation
“FI575Min”=minimum fluorescence intensity at 575 nm after Na^+ stimulation
as §1

Nav1.7 [3] = molecular target: T1, Nav1.7; assay: Manual patch clamp assay, two pulse protocol; type: cell-based
Description: Manual patch clamp recordings are conducted at RT using the voltage-clamp amplifier (Axon Instruments or HEKA electronik). Electrodes are pulled with P-97 electrode puller (Sutter Instrument). The electrode resistances are 1-3 MOhm when intercellular solution is filled. Currents are lowpass filtered between 2-5 kHz and digitally sampled at 10 kHz.
The extracellular and intercellular solutions for human Nav1.7 and NaV1.5 consist of the following composition:
Extracellular recording solution (mM): 135 NaCl, 5 KCl, 2 CaCl2, 1 MgCl2, 10 HEPES, and 10 Glucose, pH 7.4 adjusted with NaOH; and
Intercellular solution (mM): 120 CsF, 15 NaCl, 10 EGTA, and 10 HEPES, pH 7.2 adjusted with CsOH.
After whole-cell configuration is achieved, cell is monitored at least 10 minutes to allow cell dialysis with pipette solution. To evaluate of inhibitory effects of test compounds, the cells are clamped at −120 or −130 mV. […]
Peak currents evoked by Test 1 and Test 2 pulses are sampled with Clampex (Axon Instruments) or Pulse+Pulse Fit (HEKA). Averaged peak currents under vehicle or test compounds are calculated from 3 data points at end of each condition. Inhibitory effect (% inhibition) of test compound is calculated as bellow; % inhibition=[1−Averaged peak current (Compound)/Averaged peak current (Vehicle)]×100 [Math.5] […]

Nav1.7 [4] = molecular target: T1, Nav1.7; assay: Affinity to resting state (Kr) and inactivated state (Ki), manual patch clamp; type: cell-based; details: read-out: Ki (inactivated state) against Nav1.7
Description: Affinity to Resting State (Kr) and Inactivated State (Ki) of Test Compound
The normalized steady-state inactivation curve is constructed using 2 sec (for vehicle) or 60 sec (for drugs) conditioning pulse to different potentials followed immediately by the test pulse to −10 mV. Peak currents are plotted as fraction of the maximum current at the conditioning potentials ranging from −120 mV to 0 mV for Nav1.7. V1/2 and k values are estimated from Boltzmann fits. The affinity of test compound to resting state of Na channels (Kresting or Kr) is assessed by depolarizing test pulse from a negative holding potential of −130 mV, where virtually all channels are in the resting state. Kr value is calculated by a conventional 1:1 binding model: Kresting(Kr)={[drug]Imax,drug/(Imax,control−Imax,drug)} [Math.6] where Kresting (=Kr) is a dissociation constant for the resting state and [drug] is compound concentration. Imax,control and Imax,drug are peak currents in the absence and presence of compound, respectively.
Interaction of the compound with the channel on inactivated state is evaluated by the following equation: Kinact(Ki)={[drug]/((1+[drug]/Kr)*exp(−ΔV/k)−1)} [Math.7] where Kinact (=Ki) is a dissociation constant for the inactivated state. ΔV is the compound-induced voltage shift of half maximal voltage of Boltzmann curve and k is the slop factor on presense of compound.

Nav1.5 [5] = molecular target: T2, Nav1.5; assay: Automated electrophysiology assay (Qpatch HTX); type: cell-based; details: Test 2 pulse, read-out: Inactivated IC50 against Nav1.5
Description: Automated Electrophysiology Assay
Automated patch clamp recordings are conducted for evaluation of inhibitory effect against Nav1.5 with the Qpatch HTX system according the manufacturer's specifications (Sophion).
The extracellular and intercellular solutions consist of the following composition:
Extracellular recording solution (mM): 137 NaCl, 4 KCl, 1.8 CaCl2, 1 MgCl2, 10 HEPES, and 10 Glucose, pH 7.4 adjusted with NaOH
Intercellular solution (mM): 135 CsF, 10 NaCl, 5 EGTA, and 10 HEPES, pH 7.3 adjusted with CsOH.
To evaluate of inhibitory effects of test compounds against Nav1.5, the cells are clamped at −110 mV. […]
Peak currents evoked by Testl and Test 2 pulses are sampled with Qpatch assay software (Sophion). Averaged peak currents under vehicle or test compounds are calculated from 3 data points at end of each condition. Inhibitory effect (% inhibition) of test compound is calculated as bellow; % inhibition=[1−Averaged peak current (Compound)/Averaged peak current (Vehicle)]×100 [Math.4]
Inhibitory effects (% inhibition) of each concentration are measured from at least 2 cells. Averaged inhibitory effects are plotted against test concentration and IC50 values at Test 1 (Closed IC50) or Test 2 (Inactivated IC50) are calculated with Hill equation, respectively. […]

Nav1.7 [6] = molecular target: T1, Nav1.7; details: data cited from the table at page 103 in WO2012/007868; read-out: IC50 against Nav1.7 channel; cited from earlier work

| SMILES | pIC50 (Nav1.7 [1]) | further results |
| --- | --- | --- |
| CS(=O)(=O)NC(=O)c1ccc(COc2cc(F)cc(-c3ccc(OCC4CC4)nc3)c2)cc1 [Example 30, 4-((3-(6-(cyclopropylmethoxy)pyridin-3-yl)-5-fluorophenoxy)methyl)-N-(methylsulfonyl)benzamide] | – | pIC50 (Nav1.5 [5]): < 4.52 |
| CS(=O)(=O)NC(=O)c1ccc(COc2cccc(-c3cc(CC4CC4)on3)c2)c(F)c1 [Example 84, 4-((3-(5-(cyclopropylmethyl)isoxazol-3-yl)phenoxy)methyl)-3-fluoro-N-(methylsulfonyl)benzamide] | 7.30 | – |
| CS(=O)(=O)NC(=O)c1ccc(COc2cccc(C3CCNCC3)c2)cc1 [WO2012/007868 Example 35] | – | pIC50 (Nav1.7 [6]): < 5.52 |
| Cc1c(OCc2cc(F)c(C(=O)NS(C)(=O)=O)cc2F)cccc1-n1cccn1 [WO2012/007868 Example 102] | – | pIC50 (Nav1.7 [6]): < 5.52 |
| CS(=O)(=O)NC(=O)c1ccc(COc2cccc(-c3cccnc3)c2)cc1 [reference compound (A), reference compound] | < 5.52 | – |
| CS(=O)(=O)NC(=O)c1ccc(COc2cccc(-c3cccnc3)c2)c(F)c1 [reference compound (B), reference compound] | 5.89 | – |

The next lines start with results.

| pIC50 (Nav1.7 [1]) | SMILES | further results |
| --- | --- | --- |
| 7.08 and 7.10 | CS(=O)(=O)NC(=O)c1ccc(COc2cccc(-c3ccc(OCC4CC4)nc3)c2)cc1 [Example 2, 4-((3-(6-(cyclopropylmethoxy)pyridin-3-yl)phenoxy)methyl)-N-(methylsulfonyl)benzamide] | pIC50 (Nav1.5 [2]): < 4.52; selectivity for Nav1.7 over Nav1.5 (Nav1.7 [3]): 75 fold; pKi (Nav1.7 [4]): 7.66 |
| 7.30 | CS(=O)(=O)NC(=O)c1ccc(COc2cccc(-c3ccc(OCC4CC4)nc3)c2)c(F)c1 [Example 14, 4-((3-(6-(cyclopropylmethoxy)pyridin-3-yl)phenoxy)methyl)-3-fluoro-N-(methylsulfonyl)benzamide] | – |
| 7.30 | CS(=O)(=O)NC(=O)c1cc(F)c(COc2cccc(-c3ccc(OCC4CC4)nc3)c2)cc1F [Example 24, 4-((3-(6-(cyclopropylmethoxy)pyridin-3-yl)phenoxy)methyl)-2,5-difluoro-N-(methylsulfonyl)benzamide] | – |
| 6.22 | CS(=O)(=O)NC(=O)c1cc(F)c(COc2cccc(-c3cccnc3)c2)cc1F [reference compound (C), reference compound] | – |
